ChEMBL document CHEMBL1134412, “(4-Piperidin-1-yl)phenyl amides: potent and selective human beta(3) agonists” (J Med Chem, 2001)

Assays:
[1] = target: T1, Beta-3 adrenergic receptor (Homo sapiens, UniProt P13945); experiment: In vitro increase in cAMP levels in Chinese hamster ovary cells expressing the human cloned beta 3 Adrenergic receptor.; format: functional, cell-based
Target sequence in this assay (P13945 whole entry): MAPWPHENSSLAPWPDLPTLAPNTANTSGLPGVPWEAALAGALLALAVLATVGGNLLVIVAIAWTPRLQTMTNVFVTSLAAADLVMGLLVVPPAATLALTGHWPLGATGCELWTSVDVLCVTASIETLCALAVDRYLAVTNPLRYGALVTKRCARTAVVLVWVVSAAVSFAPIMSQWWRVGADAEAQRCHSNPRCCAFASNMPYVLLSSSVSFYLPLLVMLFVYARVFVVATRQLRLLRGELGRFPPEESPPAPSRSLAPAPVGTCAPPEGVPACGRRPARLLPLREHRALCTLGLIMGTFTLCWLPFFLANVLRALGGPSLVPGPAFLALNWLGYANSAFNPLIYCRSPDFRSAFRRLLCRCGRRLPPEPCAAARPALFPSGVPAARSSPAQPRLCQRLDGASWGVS

[2] = target: T2, Beta-1 adrenergic receptor (Homo sapiens, UniProt P08588); experiment: Inhibition of I-iodocyanopindolol binding to human beta 1 adrenergic receptors
Target sequence in this assay (P08588 whole entry): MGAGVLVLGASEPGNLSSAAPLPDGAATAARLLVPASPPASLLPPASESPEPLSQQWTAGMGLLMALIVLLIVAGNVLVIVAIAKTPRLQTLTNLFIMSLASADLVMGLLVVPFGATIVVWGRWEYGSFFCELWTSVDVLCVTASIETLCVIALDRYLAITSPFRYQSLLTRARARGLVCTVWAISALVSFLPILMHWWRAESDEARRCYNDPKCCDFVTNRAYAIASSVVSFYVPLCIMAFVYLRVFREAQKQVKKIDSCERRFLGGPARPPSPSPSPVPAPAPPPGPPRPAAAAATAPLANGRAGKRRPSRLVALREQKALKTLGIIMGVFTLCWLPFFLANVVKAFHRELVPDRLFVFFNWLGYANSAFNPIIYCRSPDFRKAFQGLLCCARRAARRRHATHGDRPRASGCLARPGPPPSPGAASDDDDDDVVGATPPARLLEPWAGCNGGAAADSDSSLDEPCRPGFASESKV

[3] = target: T1, Beta-3 adrenergic receptor; experiment: Compound was tested for increased thermogenesis using beta-3 human transgenic mice
Target sequence in this assay (P13945 whole entry, looked up): as the sequence (P13945 whole entry) above

[4] = target: T3, Beta-2 adrenergic receptor (Homo sapiens, UniProt P07550); experiment: Increased cAMP levels of Chinese hamster ovary (CHO) cells expressing human beta 2 adrenergic receptors; format: functional, cell-based
Target sequence in this assay (P07550 whole entry): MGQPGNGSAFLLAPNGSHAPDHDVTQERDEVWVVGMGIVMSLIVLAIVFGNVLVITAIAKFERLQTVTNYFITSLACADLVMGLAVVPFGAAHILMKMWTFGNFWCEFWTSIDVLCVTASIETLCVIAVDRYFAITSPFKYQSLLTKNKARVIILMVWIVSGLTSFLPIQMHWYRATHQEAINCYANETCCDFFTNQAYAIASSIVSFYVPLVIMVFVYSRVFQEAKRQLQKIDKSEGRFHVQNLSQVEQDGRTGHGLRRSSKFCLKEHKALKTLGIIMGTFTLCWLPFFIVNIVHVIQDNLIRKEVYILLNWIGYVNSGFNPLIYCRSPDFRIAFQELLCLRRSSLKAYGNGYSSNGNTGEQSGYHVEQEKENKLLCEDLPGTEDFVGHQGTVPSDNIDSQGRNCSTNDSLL

[5] = target: T2, Beta-1 adrenergic receptor; experiment: Increased cAMP levels of Chinese hamster ovary (CHO) cells expressing human beta 1 Adrenergic receptor; format: functional, cell-based
Target sequence in this assay (P08588 whole entry): as the sequence (P08588 whole entry) above

[6] = target: T3, Beta-2 adrenergic receptor
Target sequence in this assay (P07550 whole entry): as the sequence (P07550 whole entry) above
Description: Inhibition of I-iodocyanopindolol binding to human beta 2 adrenergic receptors

[7] = target: T2, Beta-1 adrenergic receptor; experiment: In vitro activity to increase cAMP levels in Chinese hamster ovary (CHO) cells expressing the cloned human beta 1 Adrenergic receptor; format: cell-based
Target sequence in this assay (P08588 whole entry): as the sequence (P08588 whole entry) above

[8] = target: T2, Beta-1 adrenergic receptor; experiment: Intrinsic activity to increase cAMP levels in Chinese hamster ovary (CHO) cells expressing the cloned human beta 1 Adrenergic receptor; format: cell-based
Target sequence in this assay (P08588 whole entry, looked up): as the sequence (P08588 whole entry) above

[9] = target: T1, Beta-3 adrenergic receptor; experiment: Intrinsic activity to increase cAMP levels in Chinese hamster ovary (CHO) cells expressing the cloned human beta 3 Adrenergic receptor; format: cell-based
Target sequence in this assay (P13945 whole entry, looked up): as the sequence (P13945 whole entry) above

[10] = target: T3, Beta-2 adrenergic receptor; experiment: Intrinsic activity to increase cAMP levels in Chinese hamster ovary (CHO) cells expressing the cloned human beta 2 adrenergic receptors; format: cell-based
Target sequence in this assay (P07550 whole entry, looked up): as the sequence (P07550 whole entry) above

CS(=O)(=O)Nc1cc([C@@H](O)CNC2CCN(c3ccc(CC(=O)O)cc3)CC2)ccc1O
EC50 [1]: 270 nM

CC(C)C[C@H](NC(=O)c1ccc(N2CCC(NC[C@H](O)c3ccc(O)c(NS(C)(=O)=O)c3)CC2)cc1)C(=O)O
Ki [2]: > 100 µM
Thermogenesis [3]: 53%
EC50 [4]: 80 nM
EC50 [1]: 8 nM
EC50 [5]: 60 nM
Ki [6]: 3.4 µM

CS(=O)(=O)Nc1cc([C@@H](O)CNC2CCN(c3ccc(C(=O)N4CCC[C@H]4C(=O)O)cc3)CC2)ccc1O
EC50 [4]: 20 nM

CCCCN(C(=O)CC(=O)O)c1ccc(N2CCC(NC[C@H](O)c3ccc(O)c(NS(C)(=O)=O)c3)CC2)cc1
Ki [2]: > 100 µM
Thermogenesis [3]: 35%
EC50 [4]: 60 nM
EC50 [1]: 9 nM
EC50 [5]: 40 nM
Ki [6]: > 100 µM

CS(=O)(=O)Nc1cc([C@@H](O)CNC2CCN(c3ccc(C(N)=O)cc3)CC2)ccc1O
EC50 [4]: 270 nM
EC50 [1]: 20 nM
EC50 [5]: 1200 nM

CS(=O)(=O)Nc1cc([C@@H](O)CNC2CCN(c3ccc(COCC(=O)O)cc3)CC2)ccc1O
EC50 [4]: 6000 nM
EC50 [1]: 66 nM
EC50 [5]: 1600 nM

CS(=O)(=O)Nc1cc([C@@H](O)CNC2CCN(c3ccc(C(=O)NCCC(=O)O)cc3)CC2)ccc1O
EC50 [1]: 260 nM

CC(C)[C@H](NC(=O)c1ccc(N2CCC(NC[C@H](O)c3ccc(O)c(NS(C)(=O)=O)c3)CC2)cc1)C(=O)O
Ki [2]: > 100 µM
EC50 [4]: > 10000 nM
EC50 [1]: 26 nM
EC50 [5]: > 10000 nM
Ki [6]: 3.6 µM

CS(=O)(=O)Nc1cc([C@@H](O)CNC2CCN(c3ccc(NC(=O)CC(=O)O)cc3)CC2)ccc1O
EC50 [4]: 900 nM
EC50 [1]: 130 nM
EC50 [5]: 100 nM

CS(=O)(=O)Nc1cc([C@@H](O)CNC2CCN(c3ccc(C(=O)N[C@@H](Cc4ccccc4)C(=O)O)cc3)CC2)ccc1O
Ki [2]: > 100 µM
EC50 [4]: 1500 nM
EC50 [5]: 43700 nM
Ki [6]: 0.48 µM

CS(=O)(=O)Nc1cc([C@@H](O)CNC2CCN(c3ccc(C(=O)O)cc3)CC2)ccc1O
EC50 [7]: 48700 nM
EC50 [4]: > 50000 nM
EC50 [1]: 220 nM

CCCCN(CC(=O)O)C(=O)c1ccc(N2CCC(NC[C@H](O)c3ccc(O)c(NS(C)(=O)=O)c3)CC2)cc1
EC50 [4]: 10500 nM
EC50 [1]: 36 nM
EC50 [5]: > 1000 nM

CCCCN(c1ccc(N2CCC(NC[C@H](O)c3ccc(O)c(NS(C)(=O)=O)c3)CC2)cc1)S(=O)(=O)CC(=O)O
EC50 [7]: 2000 nM
IA [8]: 0.51
IA [9]: 1
EC50 [4]: 5000 nM
EC50 [1]: 4 nM
IA [10]: 0.45

CS(=O)(=O)Nc1cc([C@@H](O)CNC2CCN(c3ccc(C(=O)NCC(=O)O)cc3)CC2)ccc1O
Ki [2]: > 100 µM
Thermogenesis [3]: 51%
EC50 [4]: 40 nM
EC50 [1]: 60 nM
EC50 [5]: 50 nM
Ki [6]: 11.6 µM

CS(=O)(=O)Nc1cc([C@@H](O)CNC2CCN(c3ccc(C(=O)N[C@@H](CCC(=O)O)C(=O)O)cc3)CC2)ccc1O
EC50 [1]: 92 nM

CS(=O)(=O)Nc1cc([C@@H](O)CNC2CCN(c3ccc(CCC(=O)O)cc3)CC2)ccc1O
EC50 [4]: 4700 nM
EC50 [1]: 39 nM
EC50 [5]: 9800 nM

CCCCCCNC(=O)Nc1ccc(S(=O)(=O)Nc2ccc(CCNC[C@H](O)COc3ccc(O)cc3)cc2)cc1 [L-755507]
Ki [2]: 0.57 µM
Thermogenesis [3]: 28%
EC50 [7]: 330 nM
EC50 [4]: 20 nM
Ki [6]: 0.16 µM

CCOC(=O)CNC(=O)c1ccc(N2CCC(NC[C@H](O)c3ccc(O)c(NS(C)(=O)=O)c3)CC2)cc1
EC50 [4]: 3200 nM
EC50 [1]: 15 nM
EC50 [5]: 4500 nM
